Values quoted from earlier work, collected in US5932245A, “Gelatin or collagen hydrolysate containing drug formulation that provides for immediate release of nanoparticle drug compounds” (priority 1991, dated 1999).
Values after ≈ are worked out from the molar mass of the structure shown. Like-named read-outs stand apart in the source and are kept apart here. Values belong to the compound of their own block, whether it stands above or below them.

How the values were obtained:
[1] = in vivo
[2] = in contrast to indometacin
[3] = aqueous medium

Compound: COc1ccc2c(c1)c(CC(=O)OCC(=O)O)c(C)n2C(=O)c1ccc(Cl)cc1 [acemetacin, carboxymethyl(1-(4-chlorobenzoyl)-5-methoxy-2-methyl-3-indolyl)acetate]
metabolism [1]: for the most part metabolized to indometacin | ulcerogenic properties [2]: weakly pronounced ulcerogenic properties

solubility ([3]; pH 1.3, room temperature): 1 mg/L (≈ 2.02 µM) | solubility ([3]; pH 6.0, room temperature): 3 mg/L (≈ 6.07 µM) | solubility ([3]; pH 7.8, room temperature): about 30 mg/l
Compound: COc1ccc(Cl)cc1C(=O)NCCc1ccc(S(=O)(=O)NC(=O)NC2CCCCC2)cc1 [glibenclamide, 1-{4-[2-(5-chloro-2-methoxybenzamido)ethyl]phenylsulfonyl}-3-cyclohexylurea]

water solubility (in words): virtually water-insoluble
Compound: COc1ccc2c(c1)c(CC(=O)O)c(C)n2C(=O)c1ccc(Cl)cc1 [indometacin, (1-(4-chlorobenzoyl)-5-methoxy-2-methyl-3-indolyl)acetic acid]
